From US20250144179A1, “PEPTIDE HORMONE TO PREVENT OR TREAT VASOSPASM, BRAIN INJURY OR CEREBRAL EDEMA” (UNIVERSITY OF FLORIDA RESEARCH FOUNDATION, INCORPORATED, priority 2022, published 2025) come the findings set out here.

Holding throughout (type): in vivo, mouse
In experiment [1] the test system is wild-type mice, SAH model. Description: Fibrinogen immunostaining for microthrombi after SAH. The note with it: 24 hours post-SAH, adropin 450 nmol/kg i.p. The procedure:
(§1) Synthetic adropin^34-76 peptide was supplied from Bachem (Bubendorf, Switzerland) and diluted in 0.1% BSA in saline. 0.1% BSA in saline was used as vehicle control for all experiments. Adropin (450 nmol/kg) or an equivalent volume of vehicle was delivered via intraperitoneal injection 15 minutes post-SAH. For experiments ending at 24 hours post-SAH, an identical dose of adropin/vehicle was given again 12 hours later. For experiments ending 7 days post-SAH, adropin/vehicle was given again on days 1, 3 & 5 post-SAH. In the aneurysm rupture model, adropin was given at a dose of 450 nmol/kg starting 3 days before aneurysm induction (elastase injection). Adropin was given every other day until sacrifice
SAH was modeled using the anterior circulation single autologous blood injection method^25,33 with minor adjustments. […]
Following perfusion-fixation and overnight post-fixation in 4% PFA, brain samples were embedded in paraffin wax and cut into […] sections with a Leica RM2125 RTS microtome (Leica Microsystems, Buffalo Grove, New York) and adhered to poly-L-lysine-coated glass slides. […] Primary antibodies were detected using donkey anti-rabbit IgG AlexaFluor594, donkey anti-rabbit IgG AlexaFluor488, donkey anti-rat IgG AlexaFluor594, or donkey anti-goat IgG AlexaFluor488 (all from ThermoFisher, Waltham, Massachusetts). […] All images were analyzed by two blinded observers.

Experiment [2] deals with murine intracranial aneurysm rupture model. Kind of experiment: Intracranial aneurysm rupture model. The settings on record: 450 nmol/kg every other day from 3 days before aneurysm induction, vs vehicle. Here is the method:
as §1
Cerebral aneurysms were induced as previously described. Briefly, mice were anesthetized with ketamine (100 mg/kg) and xylazine (10 mg/kg) before the left common carotid artery and the right renal artery were ligated with 7-0 silk suture (Ethicon Inc., Somerville, New Jersey). Carotid and renal artery ligations are hereafter referred to as ligations. One week after ligations, mice were anesthetized and 10 μL of 1.0 U/mL porcine pancreatic elastase solution (Worthington Biochemical Corp, Lakewood, New Jersey) diluted in phosphate buffered saline (PBS, Invitrogen, Carlsbad, California) was stereotactically injected into the right basal cistern at 1.2 mm rostral of bregma, 0.7 mm lateral of midline, and 5.3 mm deep to the surface of the brain. A subcutaneous osmotic pump (Alzet, Cupertino, California) placed in the right flank immediately after elastase injection and continually infused angiotensin II (Bachem, Torrence, California) at a dose of 1000 ng/kg/min. Elastase injection and osmotic pump placement are hereafter referred to as aneurysm induction. Following recovery from aneurysm induction, mice were fed a diet of 8% NaCl with 0.12% beta-aminopropionitrile (BAPN; Harlan Laboratories, Indianapolis, Indiana).
Three weeks post-aneurysm induction, mice were deeply anesthetized with ketamine/xylazine. A bilateral anterolateral thoracotomy with transverse sternotomy was made to expose the heart and great vessels. The right atrium was punctured with the tip of a 23 g needle as an outlet before the left ventricle was sequentially perfused with normal saline, 4% paraformaldehyde (PFA), and Coomassie Brilliant Blue dye in a 20% gelatin solution. Brains were carefully removed from the skull and inspected under a dissection microscope for the presence of aneurysms as evidenced by outpouching of cerebral arteries in or connected to the circle of Willis. Aneurysm rupture was identified by the presence of extravasated blood near an identified aneurysm. […]

The test system of experiment [3] is wild-type mice, SAH model. Kind of experiment: Cerebral blood flow by laser speckle contrast imaging after SAH. The settings on record: day 1 post-SAH, adropin 450 nmol/kg i.p. Here is the method: as §1
SAH was modeled using the anterior circulation single autologous blood injection method^25,33 with minor adjustments. Mice were anesthetized with ketamine (100 mg/kg) and xylazine (10 mg/kg) before removing hair from scalp and cleaning with serial betadine—saline washes. The tail was also prepped from the base extending 1 cm distally. Mice were then fixed into a stereotaxic frame and body temperature maintained at 37° C. […]
One day post-SAH, animals were anesthetized with ketamine/xylazine as described above, placed in a supine position in a stereotaxic frame. […] Blood flow (perfusion) values are calculated using PIMsoft software (PeriMed AB, Stockholm, Sweden) as arbitrary “perfusion units”. […]

On to “adropin (CHSRSADVDSLSESSPNSSPGPCPEKAPPPQKPSHEGSYLLQP) [Synthetic adropin^34-76 peptide from Bachem]”, for which the “number of microthrombi (fibrinogen immunostaining)” value in experiment [1] is “adropin treatment completely abolished this effect”. Further, in experiment [2], the aneurysm formation result is “did not significantly reduce aneurysm formation”, the aneurysm rupture entry is “did not significantly reduce aneurysm formation (FIG. 9C) or aneurysm rupture”, the “deficit-free (symptom-free) survival” value is listed as “extended deficit-free survival compared to vehicle” and the “proportion of aneurysm ruptures that were symptom-producing” value was “less likely to be symptom-producing”. For the same substance, the “cerebral blood flow (CBF), perfusion” value in experiment [3] is “adropin treatment restored CBF back to baseline”.
